According to patent US20250327140A1, “A METHOD OF DETERMINING THE DOSE OF PSYCHEDELICS” (priority 2022, published 2025):

What was measured:
[1] = test system: ABCF1 promoter (eGFP reporter); assay: DC2.4 cells transfected with ABCF1-GFP reporter construct, drug screening by fluorescence; format: cell-based; conditions: for induction of ABCF1-EGFP-IRES (FIG. 11): DC2.4 cells with ABCF1 GFP construct
Excerpt: Cells for use in a high-throughput cell-based screening assay to screen for drugs and genes that stimulate ABCF1 expression were created. In particular, the cells comprise a construct comprising the ABCF1 promoter linked to the sequence encoding eGFP. In the assay, drugs/compositions may be screened for modulating expression of ABCF1 by measuring fluorescence. • 1. DC2.4 cell line was used for the ABCF1-GFP vector (FIG. 7) transfection. DC 2.4 cell line was used as these cells have low endogenous ABCF1 expression. • 2. After 3 days, based on the fluorescent signal, those transfected cells were single cell sorted using cell sorter, compared with DC2.4 cell line without transfection as a negative control. (Those cells with some fluorescent signals were transfected successfully as expected) • 3. Those single cells were collected in a 96 well plate and grown around 2 weeks using DMEM+10% FBS+1% PS, and 12 colonies were picked. • 4. Expended 12 colonies into 24 well plate to grow continuously around 2 weeks with DMEM+10% FBS+1% PS+[…] Hygromycin (selection antibiotics which inserted in the vector) to keep the majority of cells which containing the vector. • 5. 5 colonies were growing well and checked the colonies ABCF1 expression level (checked the GFP reporter in between negative control and positive control (50 uM and 100 μM) to see which colonies is the best to be drug screening cell). • See FIGS. 8 to 11.

ABCF1 [2] = assay: real time RT-PCR specific for ABCF1 and IL-4 in RAW macrophages incubated with Escitalopram; format: cell-based, murine; conditions: 0.3 mM, 1 hour
Protocol: RAW macrophages were plated at 1×10^5 cells/well and cultured for 2 days. The cells were incubated with 0.3 mM Escitalopram for 1 hour, and then harvested for total RNA, which was extracted for real time RT-PCR specific for ABCF1 and IL-4. CT values were normalized with CT value for the housekeeping gene from the DMSO control.

ABCF1 [3] = assay: qPCR of ABCF1 transcription in macrophage cell line RAW264.7, dose response with psychedelics; format: cell-based, murine; conditions: RAW264.7, 10 nM, 100 nM, 500 nM, 2 hours post treatment
Protocol: • 1. Macrophage cell line RAW264.7 (ATCC) were grown to 80% confluency in growth media (DMEM+10% FBS+glutamine). • 2. Dilutions of the drugs were made at desired final concentrations for a Dose response experiment. The concentrations' used for this experiment are: 10 nM, 100 nM, 500 nM for Psilocin, Psylocibin, 4-Acetoxy-N, N-dimthyltryptamine, O-Acetyl Psilocin Fumerate, and 4-acetoxyindole. • 3. Untreated cells were used as negative control and Escitalopram at 0.3 mM was used as a positive control to activate ABCF1 expression for all the experiments. Analysis by qPCR:
• 1. 2 hours post treatment with drugs, the reaction was stopped by removing the media with the drug. Cells were then collected and RNA was isolated from these. • 2. After checking the quality of the RNA, cDNA was generated and qPCR was run with ABCF1 primers as the target gene and GAPDH as the house keeping gene. • 3. Normalized against the expression level of GAPDH, the fold change expression level of ABCF1 was calculated and tabulated for all treatment conditions.

| SMILES | induction of ABCF1-EGFP-IRES (FIG. 11) [1] | ABCF1 upregulation (FIG. 10) ([1]; after 1 hour drug treatment) | difference in ABCF1 and IL-4 expression after drug treatment (macrophage polarization) (ABCF1 [2]; consistent in 3 separate experiments) | ABCF1 induction in a macrophage cell line (ABCF1 [2]; real time RT-PCR) | ABCF1 transcription (fold change vs GAPDH) (ABCF1 [3]) |
| --- | --- | --- | --- | --- | --- |
| CC(=O)Oc1cccc2[nH]ccc12 [AOI, 4-acetoxyindole] | induction | upregulates |  |  |  |
| CN(C)CCC[C@@]1(c2ccc(F)cc2)OCc2cc(C#N)ccc21 [Escitalopram] | induction |  | consistent with polarization towards an M2-like phenotype | Induces |  |
| CN(C)CCc1c[nH]c2cccc(O)c12 [psylocin, Psilocin] |  |  |  |  | upregulate |
